This is an account of results in US8409618B2, “Odor-reducing quinone compounds” (Kimberly-Clark Worldwide, Inc., priority 2002, dated 2013).

The nature of assay [1]: Urine odor and secondary odor panel ranking, dye powders in urine, 8 millimolar (Example 7). Details: species or system human. The settings on record: for Average Urine Odor Ranking (with statistical corrections), Avg. Score: ignoring statistical anomalies; for Secondary Odor Ranking: scale 1 to 5, 5 extremely unpleasant, individual panelists' scores. The procedure:
(§1) Qualitative odor reduction was also assessed against common odors, such as garlic and urine. Specifically, panelists assessed odorant-containing jars by carefully unscrewing, and then raising the lid of each jar in a controlled manner, such that the odor was not diluted by the ambient air. The jars were wrapped and coded to ensure that the sample identity was unknown.
The effectiveness of various dyes in reducing urine odor was compared. […] Human female urine was initially collected and pooled by a nurse on staff at Kimberly-Clark Corporation. The pooled urine was added to mason jars in 50-milliliter aliquots using an automated pipette aid. Powders of the aforementioned dyes (commercially available from Sigma-Aldrich Chemical Co., Inc. of St. Louis, Mo. and Noveon Hilton Davis, Inc. of Cincinnati, Ohio) were weighed and placed into the mason jars containing 50 milliliters of urine so that the final concentration of the dye powder was 8 millimolar (equivalent to 0.5 wt. %). The mason jars were placed in an incubator overnight at 37° C.
To aid in the assessment of the dyes, the mason jars were divided into two groups for a morning assessment, and the best of both groups were compared in an afternoon assessment (after a total of 24 hours). In addition to ranking the jars from least to most malodorous (on a scale from 1 to 7, with 7 being the most malodors), panelists were also asked to judge whether there were secondary (non-urine) odors present and, if so, the extent that the secondary odors were unpleasant (on a scale from 1 to 5, with 5 being extremely unpleasant).
In this assessment, panelists were given instructions to rank the least malodorous jar as “1” and the most malodorous jar as “10,” remaining free to rank the other jars between 2-9.

Assay [2] in a line: Urine odor panel ranking, dye-coated Poise pads without SN-AK (Example 8). Also noted: species or system human. Conditions: for Secondary Odor Ranking: scale of 1-5; for Average Urine Odor Ranking, Avg. Score / overall urine odor control performance (panel): final pooled assessment; for urine odor reduction (panel), assessment within set: overnight 37° C.; for overall urine odor control performance (panel): top-sheet coating. The procedure:
as §1
Specifically, Acid Green 25, Acid Green 41, Acid Blue 129, and D&C Green No. 5 were tested. Powders of the aforementioned dyes (commercially available from Sigma-Aldrich Chemical Co., Inc. of St. Louis, Mo. and Noveon Hilton Davis, Inc. of Cincinnati, Ohio) were dissolved in water so that the concentration of the dye was 8 millimolar (equivalent to 0.5 wt. %). Samples of tissue wrap were created by cutting 9″×6″ sheets from a roll of tissue (1 ply white cellulose wrap sheet having a basis weight of 16.6 grams per square meter) were weighed, oven-dried overnight at 90° C., and weighed again the next day to calculate the amount of residual water in each wrap. The wraps were then dipped into a respective dye solution and hung to dry overnight, after which they were weighed again. The treated wraps were then rinsed in deionized water to remove any unbound dye and hung again to dry overnight. After weighing the treated wraps, they were once again oven-dried overnight at 90° C. and weighed to determine the dry add-on percentages ([…]). The add-on percentage for each sample was approximately 1.6 wt. %.
Two different sets of Poise® pads (commercially available from Kimberly-Clark Corp.) were tested. The first set of dye-coated tissue wraps (without SN-AK) was inserted around the pledgette area of the Poise® pads. The Poise® pads were cut open and the tissue wrap surrounding the pledgette carefully removed and replaced with dye-coated tissue wrap. The second set of dye-coated tissue wraps (without SN-AK) used dye coatings on the top of the pad (rather than inside). These pads were constructed by spreading the solution over the top of each pad. To prevent the superabsorbent area of the pad from soaking up the solution, the pads were cut open prior to coating and a layer of plastic wrap was placed between the top layer of the pad and the superabsorbent core. A pad that was cut open, but coated only with water on top, was used as a control. All pads were dried at room temperature overnight before placing them in mason jars for testing. For control purposes, a Poise® pad was also tested that was cut open, but retained its original tissue wrap. In addition, Serenity® Night & Day™ incontinence pads, which are commercially available from SCA Incontinence Care of Eddystone, Pa. and said to employ OdaSorb Plus™ to reduce odor, were also used for comparison.
Fresh human female urine was then pooled, and 50-milliliter aliquots were applied to the pads using a pipette. The mason jars were placed in a 37° C. incubator overnight for assessment the next day. […] Panelists were again asked to rank any secondary odors for unpleasantness on a scale of 1-5.

Setting [3] is: First Grouping, morning assessment, 8 millimolar, 7 most malodorous.
[4] abbreviates: First Grouping, scale 1 to 7, 7 most malodorous.
Setting [5] is: Second Grouping, morning assessment, 8 millimolar, higher = more malodorous.
The mark [6] stands for this setting: After 24 Hours, top performers of both groupings, 1 least, 10 most malodorous.
Setting [7] is: after 24 hours, top performers of both groupings.
The mark [8] stands for this setting: after 24 hours, top performers, 1 least, 10 most malodorous.
Where [9] appears, read: 1st set (tissue-wrap coating), After 30 Hours.
Where [10] appears, read: 2nd set (top-sheet coating), After 30 Hours.
[11] abbreviates: first set of pads (dye-coated tissue wrap around pledgette).
The mark [12] stands for this setting: second set of pads (dye coating on top of pad).

With “1,2 naphthaquinone-2-sulfonic acid potassium salt”, in assay [1] (setting [3]), the “Urine Odor Ranking (number of panelists): ranking 2” value (“Urine Odor Ranking … ranking 2” below) is reported as 1 number of panelists, the “Urine Odor Ranking (number of panelists): ranking 3” value (from here on “Urine Odor Ranking … ranking 3”) is recorded as 2 number of panelists, the “Urine Odor Ranking (number of panelists): ranking 4” value (“Urine Odor Ranking … ranking 4” for short) is 1 number of panelists and the “Urine Odor Ranking (number of panelists): ranking 7” value (“Urine Odor Ranking … ranking 7” for short) is 1 number of panelists. Further, the “Average Urine Odor Ranking, Avg. Score” value in assay [1] (setting [4]) worked out at 3.8. Moreover, in assay [1] (first grouping), the “secondary (non-urine) odor (panel)” value is “an unpleasant secondary smell was found to be present” and the “urine odor reduction (panel)” value was “effectively reduced urine odor”.

Take `O=C1C=C(S(=O)(=O)[O-])C(=O)c2ccccc21.[K+]` [1,4 Naphthaquinone, 1,4 naphthaquinone-2-sulfonic acid potassium salt]: in assay [1] (Second Grouping), the “Average Urine Odor Ranking, Avg. Score” value came out at 1.8 and the “secondary (non-urine) odor (panel)” value is recorded as “unpleasant secondary odor”. In addition, in assay [1] (setting [5]), the “Urine Odor Ranking (number of panelists): ranking 1” value is recorded as 2 number of panelists, the “Urine Odor Ranking … ranking 2” value is on record as 2 number of panelists and the “Urine Odor Ranking … ranking 3” value is 1 number of panelists.

For `Nc1cc(S(=O)(=O)[O-])c(O)c2c1C(=O)c1c(O)c(S(=O)(=O)[O-])cc(N)c1C2=O.[Na+].[Na+]` [Acid Blue 45], in assay [1] (Second Grouping), the “Average Urine Odor Ranking, Avg. Score” value was determined as 3.4. In assay [1] (setting [5]), the “Urine Odor Ranking … ranking 2” value is recorded as 1 number of panelists, the “Urine Odor Ranking … ranking 3” value is on record as 2 number of panelists, the “Urine Odor Ranking … ranking 4” value is given as 1 number of panelists and the “Urine Odor Ranking (number of panelists): ranking 5” value (“Urine Odor Ranking … ranking 5” for short) is listed as 1 number of panelists.

For the compound `Cc1ccc(Nc2ccc(Nc3ccc(C)cc3S(=O)(=O)[O-])c3c2C(=O)c2ccccc2C3=O)c(S(=O)(=O)[O-])c1.[Na+].[Na+]` [Acid Green 25], in assay [1] (setting [6]), the “Urine Odor Ranking (number of panelists): ranking 1” value is on record as 3 number of panelists, the “Urine Odor Ranking … ranking 2” value is reported as 1 number of panelists and the “Urine Odor Ranking (number of panelists): ranking 10” value is recorded as 1 number of panelists. For the same compound, in assay [1] (setting [3]), the “Urine Odor Ranking (number of panelists): ranking 1” value is 3 number of panelists, the “Urine Odor Ranking … ranking 2” value is listed as 1 number of panelists and the “Urine Odor Ranking (number of panelists): ranking 6” value is listed as 1 number of panelists. The “Average Urine Odor Ranking, Avg. Score” value in assay [1] (setting [4]) amounted to 2.2. Moreover, the “Average Urine Odor Ranking, Avg. Score” value in assay [1] (Second Grouping) came to 4.4. For the same compound, the “urine odor reduction (panel)” value in assay [1] (setting [7]) was “achieved the best odor reduction”. Besides, in assay [1] (setting [8]), the “Average Urine Odor Ranking, Avg. Score” value came to 3.0. Moreover, in assay [1] (after 24 hours, top performers), the “Average Urine Odor Ranking (with statistical corrections), Avg. Score” value is listed as 1.3. In assay [1] (first grouping), the “secondary (non-urine) odor (panel)” value is listed as “not found to be unpleasant by most panelists” and the “urine odor reduction (panel)” value is “functioned effectively to reduce odor”. In addition, in assay [2] (setting [9]), the “Urine Odor Ranking … ranking 3” value is reported as 1 number of panelists, the “Urine Odor Ranking … ranking 4” value is 1 number of panelists, the “Urine Odor Ranking … ranking 5” value was 1 number of panelists and the “Urine Odor Ranking (number of panelists): ranking 6” value was 1 number of panelists. Further, the “Secondary Odor Ranking” value in assay [2] (setting [9]) was 4. Further, the “Average Urine Odor Ranking, Avg. Score” value in assay [2] (1st set (tissue-wrap coating)) was determined as 4.50. Besides, in assay [2] (setting [10]), the “Urine Odor Ranking (number of panelists): ranking 1” value is listed as 3 number of panelists and the “Urine Odor Ranking … ranking 7” value is 1 number of panelists. In addition, the “Average Urine Odor Ranking, Avg. Score” value in assay [2] (2nd set (top-sheet coating)) is 2.50. Besides, in assay [2] (setting [11]), the “urine odor reduction (panel), assessment within set” value is recorded as “performed best for the first set of pads”. In addition, in assay [2] (setting [12]), the “urine odor reduction (panel), assessment within set” value is on record as “performed best for the second set of pads”. For the same compound, the “overall urine odor control performance (panel)” value in assay [2] is listed as “best performer overall”.

On to `Cc1ccc(Nc2ccc(Nc3ccc(C)cc3S(=O)(=O)[O-])c3c2C(=O)c2c(O)ccc(O)c2C3=O)c(S(=O)(=O)[O-])c1.[Na+].[Na+]` [Acid Green 41], for which the “Urine Odor Ranking (number of panelists): ranking 1” value in assay [1] (setting [6]) and in assay [1] (setting [3]) was 1 number of panelists each time. The “Urine Odor Ranking … ranking 2” value in assay [1] (setting [6]), in assay [1] (setting [3]) and in assay [2] (setting [10]) was 2 number of panelists in each case. Besides, the “Urine Odor Ranking … ranking 3” value in assay [1] (setting [6]), in assay [1] (setting [3]) and in assay [2] (setting [10]) was 1 number of panelists throughout. Moreover, in assay [1] (setting [6]), the “Urine Odor Ranking … ranking 7” value is given as 1 number of panelists. Also, the “Urine Odor Ranking … ranking 4” value in assay [1] (setting [3]) and in assay [2] (setting [10]) was 1 number of panelists throughout. The “Secondary Odor Ranking” value in assay [1] (First Grouping) and in assay [2] (setting [10]) was 1 throughout. Also, the “Average Urine Odor Ranking, Avg. Score” value is 2.4 in assay [1] (setting [4]), 3.0 in assay [1] (setting [8]), 4.50 in assay [2] (1st set (tissue-wrap coating)) and 2.75 in assay [2] (2nd set (top-sheet coating)). Besides, the entries for the “urine odor reduction (panel)” value in assay [1] (setting [7]) and in assay [1] (first grouping) were “achieved the best odor reduction” and “functioned effectively to reduce odor”, respectively. Further, the “Average Urine Odor Ranking (with statistical corrections), Avg. Score” value in assay [1] (after 24 hours, top performers) is on record as 2.0. Also, the results for the “urine odor reduction (panel), assessment within set” value in assay [2] (setting [11]) and in assay [2] (setting [12]) were “performed best for the first set of pads” and “performed best for the second set of pads”, respectively. For the same compound, the “overall urine odor control performance (panel)” value in assay [2] is reported as “best performer overall, followed by Acid Green 41”.

Turning to `CCN(Cc1cccc(S(=O)(=O)[O-])c1)c1ccc(C(=C2C=CC(=[N+](CC)Cc3cccc(S(=O)(=O)[O-])c3)C=C2)c2ccccc2S(=O)(=O)[O-])cc1.[Na+].[Na+]` [FD&C Blue No. 1, reference compound], in assay [1] (setting [3]), the “Urine Odor Ranking … ranking 4” value is 1 number of panelists and the “Urine Odor Ranking … ranking 5” value is 4 number of panelists. The “Secondary Odor Ranking” value in assay [1] (First Grouping) was 3. For the same compound, the “Average Urine Odor Ranking, Avg. Score” value in assay [1] (setting [4]) was 4.8.
